For this experiment, the target named is MBP-fused YpsR (1-179); YpsR-MBP; heading also 'YpeR' (Yersinia pseudotuberculosis, UniProt Q669I5). Conditions: read-out: Dissociation constant.
Chain of MBP-fused YpsR (1-179); YpsR-MBP; heading also 'YpeR' (Q669I5 1-179 limits assumed): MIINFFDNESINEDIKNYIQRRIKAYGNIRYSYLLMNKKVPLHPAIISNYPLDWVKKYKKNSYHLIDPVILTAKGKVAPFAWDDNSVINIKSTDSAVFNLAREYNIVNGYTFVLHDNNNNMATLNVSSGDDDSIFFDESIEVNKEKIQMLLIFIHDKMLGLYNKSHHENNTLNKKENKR
Regarding `CCCCCC(=O)CC(=O)N[C@H]1CCOC1=O` [3OC8], the Kd is 24.2 µM. To `CCCCCCCC(=O)N[C@H]1CCOC1=O` [C8] belongs 15.6 µM; to `CCCC(=O)CC(=O)N[C@H]1CCOC1=O` [3OC6], 1.3 µM; to `CCCCCCCCCCCC(=O)CC(=O)N[C@H]1CCOC1=O` [3OC14], 18.2 µM. On to `CCCCCC(=O)N[C@H]1CCOC1=O` [C6], for which the Kd is 6.6 µM. To `CCCCCCCCCC(=O)CC(=O)N[C@H]1CCOC1=O` [3OC12] belongs 130 µM; to `CCCCCCCC(=O)CC(=O)N[C@H]1CCOC1=O` [3OC10], 146 µM; to `CCCCCCCCCC(=O)N[C@H]1CCOC1=O` [C10], 21.3 µM.

(Values after publication PMC11564790 (Synthetic and Systems Biotechnology, 2024).)
